The values below come from article PMC8595862 (Environmental toxicology and pharmacology, 2021).

SMILES strings stand for the structures. Where a name gives a salt, the structure may show the parent alone.

The conditions of series [1]: rats, 0.6 mg/kg intravenous injection; ref Grimm et al., 2015a; cited from earlier work.
For series [2], the system named is human hepatic microsomal sulfatase. The series is described as follows: Human hepatic microsomal sulfatase assay. Format: in vitro ADME. The following applies: relative to DHEA sulfate.
The conditions of series [3]: human cohort exposed to PCBs; calculated; ref Quinete et al., 2017; cited from earlier work.

Turning to `O=S(=O)(O)Oc1ccc(-c2cccc(Cl)c2)cc1Cl` [4-PCB 11 Sulfate, 3,3’-dichloro-4-biphenylsulfate], the “Tissue uptake, metabolism and urinary excretion” value in series [1] was “taken up by tissues and further metabolized, with only a small percentage excreted in the urine”.

As to `O=S(=O)(O)Oc1cc(Cl)c(-c2cc(Cl)ccc2Cl)cc1Cl` [4-PCB 52 Sulfate, 2,2’,5,5’-tetrachloro-4-biphenylsulfate], the “Catalytic efficiency compared with DHEA sulfate” value in series [2] is “over 20 times”.

For `Oc1ccc(-c2ccc(Cl)cc2Cl)cc1Cl` [4’-OH-PCB 25, 2,3’,4-trichloro-4’-hydroxybiphenyl], the Plasma half-life in series [3] is 6.46 years.

On to `O=S(=O)(O)Oc1ccc(-c2ccc(Cl)c(Cl)c2)cc1` [4’-PCB 12 Sulfate, 3,4-dichloro-4’-biphenylsulfate], for which the “Catalytic efficiency compared with DHEA sulfate” value in series [2] was “the same as DHEA sulfate”.

Turning to `Clc1ccc(-c2ccc(Cl)cc2Cl)cc1` [PCB 28, 2,4,4’-trichlorobiphenyl], the Plasma half-life in series [3] is on record as 4.32 years.
